From US7728105B2, “Peptides impairing PBX dependent gene regulation” (St. George's Hospital Medical School, priority 2002, dated 2010)
One block for each substance: values may come before it. No end group written: not given here.

Assays:
PBX/HOX dimers = experiment: Western blotting of PBX and PBX/HOX dimers in CD133+ cells (Example 3); format: cell-based, human; conditions: 20 μg/ml, EDC cross-linking
Description: CD133+ cells (another name for AC133+ cells) were seeded in duplicate at 4×10^4 cells/ml in IMDM (Life Technologies), 10% FCS (Sigma Aldrich) and gentamycin (50 μg/ml Life Technologies) and Thrombopoietin (TPO) 10 ng/ml, Flt3-Ligand (FL) 50 ng/ml & c-KitL (K) 20 ng/ml), all obtained from R and D systems Ltd., UK. (Forraz et al., 2002). The HXP peptide (N-term: WYPWMKKHHRQIKIWFQNRRMKWKK: C-term; Eurogentec, Belgium) and control CXP peptide (N-term: WCCLADRHGRQIKIWFQNRRMKWKK: C-term; Eurogentec, Belgium) were added to culture medium at a concentration of 20 μg/ml. To withdraw peptides from culture, cells were washed twice in IMDM or RPMI and reseeded at prewash cell densities. Primary cells were cultured for 3 weeks at 37° C., 5% CO2 in humidified atmosphere and enumerated by a […] exclusion method with a heamocytometer.
Protein was extracted from HXP-treated or CXP-treated CD133+ cells (20 μg/ml). C-20 antibody that recognises all three human PBX gene proteins (sc-888, Santa Cruz Biotechnology Inc., USA; Monica et al., 1991). Protein cross linking was performed with 2 mM 1-ethyl-3-[3-(dimethylamino)propyl]carbodiimide (EDC) (Pierce Biotechnology, USA), in cell lysates diluted 1:10 in conjugation buffer (0.1M 2-[N-morpholino]ethane sulphonic acid, pH 5). […]

malignant cell lines = experiment: Proliferation of malignant cell lines over seven days in culture; format: cell-based, human; set-up: effect of increased dose on proliferation of malignant cell lines: dose or concentration left out as unconfirmed; conditions: ten fold increase in dose
Description: A number of cell lines representing different malignancies were grown in culture for seven days, and HXP peptide or the control peptide CXP were added to a final concentration of 20 μg/ml on day 3. The bars represent the fold increase of each cell line over the seven days; the empty, dashed bars indicate the CXP peptide treated cells, whilst the solid bars indicate the addition of HXP peptide. Error bars represent the standard error the mean, and n is the number of experiments performed. The cell lines used were: AML—KG1a; Bladder—HT; Breast—SKBR3; Cervical—HeLa; Colon—Colo41; Gastric—MKN-45; Large cell lung cancer—MES; Melanoma—DX3; Ovarian—1847; Pancreatic—Panc-Tu1; Prostate—LNCAP; Renal—HT1376; Small cell lung cancer—NCI-h510A. The change in the expression of the HOX genes expressed by each cell line was assessed by RT-PCR on RNA extracted from the cells at the end of seven days. ‘HOX gene inactivated’ means that the level of expression of each of the listed HOX genes was at least five fold lower in the HXP peptide treated cells compared to the control. *Analysis not yet complete.
A number of cell lines representing different malignancies were grown in culture for seven days, and HXP peptide or the control peptide CXP were added to a final concentration of 200 μg/ml on day 3. The bars represent the fold increase of each cell line over the seven days; the empty, dashed bars indicate the CXP peptide treated cells, whilst the solid bars indicate the addition of HXP peptide. Error bars represent the standard error the mean, and n is the number of experiments performed. The cell lines used were: Bladder—HT; Cervical—HeLa; Melenoma—DX3; Pancreatic—Panc-Tu1.
Solid tumour cell lines (Cancer Research UK) were seeded at 4×10^4 cells/ml, in a liquid culture system made of appropriate medium (see table, Sigma-Aldrich, UK) supplemented with 10% FCS (Sigma Aldrich) and penstrep (1% Sigma). All cell lines were grown with HXP peptide (as in Example 3, 20 μg/ml or 200 μg/ml) or control peptide CXP (20 μg/ml or 200 μg/ml).
KG1a, KG1, HL60 and U937 cell lines (EACC, UK) were seeded at 5×10^4 cells/ml, in a liquid culture system made of RPMI-1640 medium (Life Technologies, UK) supplemented with 10% FCS (Sigma Aldrich) and gentamicin (50 μg/ml Life Technologies) in triplicates. All cell lines were grown with HXP peptide peptide (20 μg/ml) or control peptide (20 μg/ml).
Cell lines were cultured for various time points at 37° C., 5% CO2 in humidified atmosphere and enumerated at various time points.

[1] = test system: PBX1, 2 and 3 association with HOX proteins; experiment: Cross-linking and Western blot of PBX proteins in KG1a cells (Example 2); format: cell-based, human; conditions: 24 hours, 1 μM peptide, EDC cross-linking
Description: HXP and control peptides were as described in Example 1. KG1a cells were grown as described in Example 1. KG1a cells were cultured for 24 hours without treatment, or in the presence of 1 μM HXP peptide or control peptide. The cells were harvested and lysed. One aliquot of the cells was subject to cross-linking. Frozen cells were lysed using standard techniques and […] of lysate was incubated for 30 minutes at room temperature in 4 mM 1-ethyl-3-[3-(dimethyl-amino)propyl]carbodimide (EDC), 4 mM sulpho-NHS, 20 mM HEPES (pH 7.5), 5 mM MgCl2, and 0.03% (w/v) […] to cross-link non-covalently associated proteins. The reaction was stopped by the addition of ammonium acetate to a final concentration of 50 mM. The other aliquot was frozen without cross-linking.
Proteins were extracted from the cells of both aliquots by standard techniques and separated by gel electrophoresis. The gels were probed by Western blot with an antibody raised against PBX1, 2 and 3 (sc-888, Santa Cruz Inc. USA) or an anti-beta actin antibody (sc-1615, Santa Cruz Inc. USA).

[2] = comparison with other peptide based pharmaceuticals; cited from earlier work
AC133+ cells = experiment: Short-term ex-vivo AC133+ cell expansion culture with HXP peptide, trypan blue cell count; format: cell-based, human; conditions: HXP peptide withdrawn at 7 days, Hox B4 protein 20 μg/ml added
Description: Umbilical Cord Blood (UCB) specimens were collected from full-term deliveries scheduled for elective caesarian sections following hospital ethical regulations.
Samples were diluted 1 in 4 in PBS supplemented with a citrate-based anti-coagulant (0.6% ACD-A, Baxter, France) and Bovine Serum Albumin (0.5% fraction V, Sigma Aldrich, UK) at pH=7.4 and referenced as “ACD-A buffer”. Diluted UCB was carefully overlaid in a 1:4 ratio onto a research grade Ficoll-Paque solution (d:1.077 g/cm^3, Pharmacia Biotech, Sweden) prior to Centrifugation (400 g, 30 minutes, 22° C.). The mononuclear cells (MNC) layer was extracted, washed twice in ACD-A Buffer, pelleted (400 g, 10 minutes) before resuspending in ACD-A buffer and cell aliquots taken for cell viability/enumeration using trypan blue (Sigma Aldrich).
AC133+ cells were obtained from MNC after immunomagnetic separation using the AC133 mini-MACS selection kit (Miltenyi Biotec, Germany): labelling volume 500 μl/10^8 cells in ACD-A buffer containing Fc Receptor-blocking reagent (100 μl, 5 min incubation, 4° C.) before adding colloidal super-paramagnetic MACS MicroBeads conjugated to monoclonal mouse anti-human AC133/1 antibody (100 μl IgG1 isotype, 25 min incubation, 4° C.). Cells were then washed (5 ml ACD-A buffer, 400 g, 10 min, 4° C.) before resuspended cells in 500 μl ACD-A buffer were applied to a chilled MACS positive selection column (MS+/RS+) on a magnet. The column was rinsed with cool ACD-A buffer (4×500 μl) and the AC133− cell population retained at 4° C. After magnet removal AC133+ cells were eluted with 1 ml of cold ACD-A buffer. The AC133+ cell fraction was reapplied to a new column, prior to cell enumeration and viability assays.
AC133+ cells were seeded in duplicate in liquid culture system at 2-4×10^4 cells/ml. […] Cultured cells were then counted at various time points using trypan blue exclusion method described above.

[3] = Stability in human serum at 37° C., denaturing PAGE and silver stain
Description: 30 μg of HXP(10) or HXP peptide were incubated in 50 μl of human serum at 37° C. for the times shown. Samples were run on a denaturing PAGE and silver stained.

Substance: WCCLADRHGRQIKIWFQNRRMKWKK (WCCLADRHGRQIKIWFQNRRMKWKK) [CXP, reference compound]
binding of PBX to other proteins / formation of PBX/HOX dimers (PBX/HOX dimers): not

Substance: WAPWEDDHHRQIKIWFQNRRMKWKK (Control Peptide) [reference compound]
effect of increased dose on proliferation of malignant cell lines (malignant cell lines): no significant affect on proliferation | association of PBX proteins with other proteins (HOX proteins) [1]: associated with-other proteins

Substance: low molecular weight heparin
serum half life [2]: thirty

Substance: HOX B4: recombinant full length Xenopus laevis sequence
AC133+ cell proliferation after HXP peptide withdrawal and co-stimulation with HOX B4 (AC133+ cells): reverted to near control levels

half-life [3]: ~4 h
Substance: WYPWMKKHHR [HXP4(10), WYPWMKKHHR]
